Patent EP4711369A1, “1H-[1,2,3]TRIAZOLO[4,5-H]QUINAZOLINE COMPOUNDS AS PROTEIN KINASE INHIBITORS” (Chengdu Cynogen Bio-Pharmaceutical Technology Co., Ltd., priority 2023, dated 2024)

Legend:
CDK2/cyclin E = CDK2/cyclin E (Homo sapiens, UniProt P24941); experiment: Assay of kinase activity (ADP-Glo); type: biochemical; conditions: kinase inhibitory activity, read-out: CDK2/E1 IC50
Protocol: (§1) CDK/cyclin catalyzes the phosphorylation of a substrate, which concomitantly consumes ATP and produces ADP. The inhibition rate (%) in the presence of a small molecule inhibitor was assessed by measuring the amount of ADP generated in the reaction. The assay compounds were thoroughly mixed by vortexing and then diluted in DMSO to 100× the assay concentration. […] A 2× kinase solution was prepared using a 1× kinase reaction buffer (50 mM Hepes, 10 mM MgCl2, 0.01% Brij35, 2 mM DTT). 2 µL of the kinase solution was transferred to the 384-well assay plate, and the plate was centrifuged at 1000 rpm for 60 seconds in a microplate centrifuge. The plate was incubated at 25 °C in a biochemical incubator for 10 minutes. A 2x mixture of substrate and ATP was prepared in the kinase reaction buffer. Then, 2 µL of the mixture of substrate and ATP was added to the 384-well assay plate. The plate was centrifuged at 1000 rpm for 60 seconds in a microplate centrifuge, and incubated at 25 °C in a biochemical incubator for 60 minutes. 4 µL of ADP-Glo Reagent (Cat. No. V9103, manufacturer: Promega) incubated at 25 °C in a biochemical incubator was added to each well of the 384-well assay plate. The plate was centrifuged at 1000 rpm for 60 seconds in a microplate centrifuge, and incubated at 25 °C in a biochemical incubator for 40 minutes. 8 µL of Detection Reagent incubated at 25 °C in a biochemical incubator was added to each well of the 384-well assay plate. The plate was centrifuged at 1000 rpm for 60 seconds in a microplate centrifuge, and incubated at 25 °C in a biochemical incubator for 40 minutes. Finally, luminescence signals were read using a multifunctional microplate reader (model: PHERAstar FSX, manufacturer: BMG). IC50 values were calculated by nonlinear fitting of the concentration-response curves using GraphPad Prism software.

CDK4/cyclin D1 = CDK4/cyclin D1 (Homo sapiens, UniProt P11802); experiment: Assay of kinase activity (ADP-Glo); type: biochemical; conditions: kinase inhibitory activity
Sequence of CDK4/cyclin D1 (P11802 whole entry, species assumed): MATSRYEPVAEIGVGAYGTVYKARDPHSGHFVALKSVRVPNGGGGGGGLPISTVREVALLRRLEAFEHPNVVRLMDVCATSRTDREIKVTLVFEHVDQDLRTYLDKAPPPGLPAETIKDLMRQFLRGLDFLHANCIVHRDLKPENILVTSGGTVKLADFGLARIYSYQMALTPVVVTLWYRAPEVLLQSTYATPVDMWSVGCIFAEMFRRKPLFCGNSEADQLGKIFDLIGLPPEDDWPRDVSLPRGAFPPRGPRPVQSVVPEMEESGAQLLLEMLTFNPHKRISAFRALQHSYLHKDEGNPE
Sequence of CDK4/cyclin D1 (P24385 whole entry partner, species assumed): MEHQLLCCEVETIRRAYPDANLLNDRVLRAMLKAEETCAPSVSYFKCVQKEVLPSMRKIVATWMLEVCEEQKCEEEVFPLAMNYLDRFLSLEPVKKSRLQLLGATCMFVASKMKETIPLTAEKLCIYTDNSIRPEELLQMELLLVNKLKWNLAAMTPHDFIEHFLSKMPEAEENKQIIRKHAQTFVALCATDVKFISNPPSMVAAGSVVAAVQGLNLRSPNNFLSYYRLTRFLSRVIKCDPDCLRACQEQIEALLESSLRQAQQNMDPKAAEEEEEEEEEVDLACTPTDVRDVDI
Protocol: as §1

CDK9/cyclin T1 = CDK9/cyclin T1 (Homo sapiens, UniProt P50750); experiment: Assay of kinase activity (ADP-Glo); type: biochemical; conditions: kinase inhibitory activity
Sequence of CDK9/cyclin T1 (P50750 whole entry, species assumed): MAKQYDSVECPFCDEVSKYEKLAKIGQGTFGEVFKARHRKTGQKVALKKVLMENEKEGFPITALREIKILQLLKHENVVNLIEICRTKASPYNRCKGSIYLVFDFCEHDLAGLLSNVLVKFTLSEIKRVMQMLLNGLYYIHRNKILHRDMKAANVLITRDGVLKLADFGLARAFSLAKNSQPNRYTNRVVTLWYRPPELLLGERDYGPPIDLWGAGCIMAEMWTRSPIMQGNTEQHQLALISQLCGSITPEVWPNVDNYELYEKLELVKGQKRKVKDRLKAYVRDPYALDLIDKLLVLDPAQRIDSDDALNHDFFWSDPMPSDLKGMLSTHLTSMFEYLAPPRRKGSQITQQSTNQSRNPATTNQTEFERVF
Sequence of CDK9/cyclin T1 (O60563 whole entry partner, species assumed): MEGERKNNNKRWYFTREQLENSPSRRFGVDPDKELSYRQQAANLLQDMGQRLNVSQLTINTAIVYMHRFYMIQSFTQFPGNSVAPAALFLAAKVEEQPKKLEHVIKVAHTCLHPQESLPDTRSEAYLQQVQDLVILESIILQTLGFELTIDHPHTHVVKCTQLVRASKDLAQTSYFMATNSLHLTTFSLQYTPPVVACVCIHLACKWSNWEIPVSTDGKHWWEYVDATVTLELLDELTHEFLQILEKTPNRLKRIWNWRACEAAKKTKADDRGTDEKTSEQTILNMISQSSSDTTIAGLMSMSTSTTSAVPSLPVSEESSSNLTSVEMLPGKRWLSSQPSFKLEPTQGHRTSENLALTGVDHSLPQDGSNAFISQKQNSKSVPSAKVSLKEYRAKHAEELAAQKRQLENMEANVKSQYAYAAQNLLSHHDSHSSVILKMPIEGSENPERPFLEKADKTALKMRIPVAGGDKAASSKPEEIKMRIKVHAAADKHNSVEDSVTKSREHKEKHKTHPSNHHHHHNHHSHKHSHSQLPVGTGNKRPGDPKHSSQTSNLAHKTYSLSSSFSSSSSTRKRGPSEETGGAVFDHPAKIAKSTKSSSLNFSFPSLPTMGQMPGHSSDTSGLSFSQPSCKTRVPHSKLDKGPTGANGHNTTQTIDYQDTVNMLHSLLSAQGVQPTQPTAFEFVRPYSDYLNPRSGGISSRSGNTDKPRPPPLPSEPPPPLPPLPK
Protocol: (§2) CDK/cyclin catalyzes the phosphorylation of a substrate, which concomitantly consumes ATP and produces ADP. The inhibition rate (%) in the presence of a small molecule inhibitor was assessed by measuring the amount of ADP generated in the reaction. The assay compounds were thoroughly mixed by vortexing and then diluted in DMSO to 100× the assay concentration. 40 nL of a compound was transferred to a 384-well assay plate using a nanoliter pipetting system (ECHO® 655 SYSTEM). A 2× kinase solution was prepared using a 1× kinase reaction buffer (50 mM Hepes, 10 mM MgCl2, 0.01% Brij35, 2 mM DTT). 2 µL of the kinase solution was transferred to the 384-well assay plate, and the plate was centrifuged at 1000 rpm for 60 seconds in a microplate centrifuge. The plate was incubated at 25 °C in a biochemical incubator for 10 minutes. A 2x mixture of substrate and ATP was prepared in the kinase reaction buffer. Then, 2 µL of the mixture of substrate and ATP was added to the 384-well assay plate. The plate was centrifuged at 1000 rpm for 60 seconds in a microplate centrifuge, and incubated at 25 °C in a biochemical incubator for 60 minutes. 4 µL of ADP-Glo Reagent (Cat. No. V9103, manufacturer: Promega) incubated at 25 °C in a biochemical incubator was added to each well of the 384-well assay plate. The plate was centrifuged at 1000 rpm for 60 seconds in a microplate centrifuge, and incubated at 25 °C in a biochemical incubator for 40 minutes. 8 µL of Detection Reagent incubated at 25 °C in a biochemical incubator was added to each well of the 384-well assay plate. The plate was centrifuged at 1000 rpm for 60 seconds in a microplate centrifuge, and incubated at 25 °C in a biochemical incubator for 40 minutes. Finally, luminescence signals were read using a multifunctional microplate reader (model: PHERAstar FSX, manufacturer: BMG). IC50 values were calculated by nonlinear fitting of the concentration-response curves using GraphPad Prism software.

CDK6/cyclin D3 = CDK6/cyclin D3 (Homo sapiens, UniProt Q00534); experiment: Assay of kinase activity (ADP-Glo); type: biochemical; conditions: kinase inhibitory activity
Sequence of CDK6/cyclin D3 (Q00534 whole entry, species assumed): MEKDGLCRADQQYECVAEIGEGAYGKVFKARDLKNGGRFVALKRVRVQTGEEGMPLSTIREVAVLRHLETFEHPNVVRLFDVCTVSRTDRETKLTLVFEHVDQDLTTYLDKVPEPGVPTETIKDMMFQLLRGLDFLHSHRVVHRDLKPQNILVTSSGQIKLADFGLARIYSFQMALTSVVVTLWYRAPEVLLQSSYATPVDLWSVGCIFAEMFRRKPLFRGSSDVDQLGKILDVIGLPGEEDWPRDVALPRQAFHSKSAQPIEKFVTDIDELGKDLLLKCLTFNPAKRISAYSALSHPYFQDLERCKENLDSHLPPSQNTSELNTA
Sequence of CDK6/cyclin D3 (P30281 whole entry partner, species assumed): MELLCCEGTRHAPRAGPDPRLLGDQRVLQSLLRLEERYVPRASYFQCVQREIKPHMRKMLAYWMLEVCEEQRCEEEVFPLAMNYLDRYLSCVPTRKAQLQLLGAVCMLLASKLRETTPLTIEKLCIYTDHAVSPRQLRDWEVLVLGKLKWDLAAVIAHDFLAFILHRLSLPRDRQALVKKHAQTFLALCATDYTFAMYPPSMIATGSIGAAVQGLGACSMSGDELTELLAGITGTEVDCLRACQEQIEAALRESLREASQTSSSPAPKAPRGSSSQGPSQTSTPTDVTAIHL
Protocol: as §2

[1] = test system: Human ovarian cancer OVCAR3 cells; experiment: Assay of cell proliferation (CellTiter-Glo); type: cell-based; conditions: Homo sapiens, OVCAR-3, 144 h, 6 days, read-out: OVCAR3 IC50 of cell proliferation inhibitory activity
Protocol: (§3) Human ovarian cancer OVCAR3 cells were inoculated at 2000 cells/well in a 96-well plate and cultured in RPMI 1640 medium containing 20% FBS at 37 °C and 5% CO2 overnight in an incubator. The next day, the compounds were subjected to a three-fold gradient dilution in DMSO from a peak concentration of 2 mM to give nine concentrations. Then, the compounds were diluted 3:200 in growth medium, and finally diluted 1:3 in the cell culture supernatant to give a culture supernatant containing 0.5% DMSO, with the compounds treatment concentrations ranging from 10 µM to 0.1 nM. The cells and the compounds were incubated at 37 °C and 5% CO2 for 6 days. Then, cell proliferation assay was performed using the CellTiter-Glo (manufacturer: Promega, Cat. No. G9242), and luminescence signals were read using a multifunctional microplate reader (model: Synergy H1, manufacturer: BiotTek). IC50 values were calculated by fitting of the concentration-response curves with a four-parameter analysis method using GraphPad Prism software.

[2] = test system: human acute myeloid leukemia MV-4-11 cells; experiment: Assay of cell proliferation (CellTiter-Glo); type: cell-based; conditions: MV4-11, 144 h, 6 days, read-out: MV-4-11 IC50 of cell proliferation inhibitory activity
Protocol: as §3
(§4) The cell proliferation assays of human colon cancer HCT-116 cells, human breast cancer MCF-7 cells, human breast cancer HCC1806 cells, human acute myeloid leukemia MV-4-11 cells, and human gastric cancer MKN1 cells were performed according to the same method, with different inoculation densities set according to different cell growth characteristics.

[3] = test system: human gastric cancer MKN1 cells; experiment: Assay of cell proliferation (CellTiter-Glo); type: cell-based; conditions: Homo sapiens, MKN-1, 144 h; MNK1, 6 days; read-out: MKN1 IC50 of cell proliferation inhibitory activity
Protocol: as §3, §4

[4] = test system: human breast cancer HCC1806 cells; experiment: Assay of cell proliferation (CellTiter-Glo); type: cell-based; conditions: Homo sapiens, 144 h, 6 days, read-out: HCC1806 IC50 of cell proliferation inhibitory activity
Protocol: as §3, §4

Row | Structure (SMILES) | IC50 (CDK2/cyclin E) [nM] | IC50 (CDK4/cyclin D1) [nM] | IC50 (CDK9/cyclin T1) [nM] | IC50 (CDK6/cyclin D3) [nM] | IC50 [1] [nM] | IC50 [2] [nM] | IC50 [3] [nM] | IC50 [4] [nM]
1 | C[C@@H](n1nnc2ccc3cnc(Nc4ccc(C(=O)N5CCNCC5)cc4)nc3c21)C(C)(C)O [Example I-56, (R)-(4-((1-(3-Hydroxy-3-methylbutan-2-yl)-1H-[1,2,3]triazolo[4,5-H]quinazolin-8-yl)amino)phenyl)(piperazin-1-yl)methanone] | 0.8 | 1 | 15 | 4 | 275 | 11 | 81 | 365
2 | CC(C)n1nnc2ccc3cnc(Nc4ccc(C(=O)N5CCNC(C)(C)C5)cc4)nc3c21 [Example I-22, (3,3-Dimethylpiperazin-1-yl)(4-((1-isopropyl-1H-[1,2,3]triazolo[4,5-H]quinazolin-8-yl)amino)phenyl)metha none] | 2 | 4 | 4 | 23 | 27 | 5 | 56 | 115
3 | CC(C)n1nnc2ccc3cnc(Nc4ccc(C(=O)N5CC[C@@H](N)C5)cc4)nc3c21 [Example I-5, (R)-(3-Aminopyrrolidin-1-yl)(4-((1-isopropyl-1H-[1,2,3]triazolo[4,5-H]quinazolin-8-yl)amino)phenyl)metha none] | 0.07 | 0.8 | 7 | 10 | 12 | 3 | 11 | 53
4 | C[C@@H](n1nnc2ccc3cnc(Nc4ccc(C(=O)N5CCN(C)CC5)cc4)nc3c21)C(C)(C)O [Example I-57, (R)-(4-((1-(3-Hydroxy-3-methylbutan-2-yl)-1H-[1,2,3]triazolo[4,5-H]quinazolin-8-yl)amino)phenyl)(4-methylpiperazin-1-yl)methanone] | 0.9 | 1 | 23 | 4 | 32 | 11 | 17 | 465
5 | C[C@@]1(O)CCC[C@H]1n1nnc2ccc3cnc(Nc4ccc(C(=O)N5CC[C@H](N)C5)cc4)nc3c21 [Example I-62, ((S)-3-Aminopyrrolidin-1-yl)(4-((1-((1R,2R)-2-hydroxy-2-methylcyclopentyl)-1H-[1,2,3]triazolo[4,5-H]quinazolin-8-yl)amino)phenyl)methanone] | 0.08 | 0.5 | 3 | 4 | 28 | 5 | 8 | 54
6 | CC(C)n1nnc2ccc3cnc(Nc4ccc(C(=O)N5CCN[C@@H](C)C5)cc4)nc3c21 [Example I-20, (S)-(4-((1-Isopropyl-1H-[1,2,3]triazolo[4,5-H]quinazolin-8-yl)amino)phenyl)(3-methylpiperazin-1-yl)methanone] | 1 | 1 | 3 | 16 | 39 | 6 | 23 | 109
7 | CC(C)n1nnc2ccc3cnc(Nc4ccc(C(=O)N5CC[C@H](F)C5)cc4)nc3c21 [Example I-1, (S)-(3-Fluoropyrrolidin-1-yl)(4-((1-isopropyl-1H-[1,2,3]triazolo[4,5-H]quinazolin-8-yl)amino)phenyl)methanone] | 0.2 | 2 | 9 | 13 | 119 | 17 | 45 | 223
8 | CC(C)N[C@H]1CCN(C(=O)c2ccc(Nc3ncc4ccc5nnn(C(C)C)c5c4n3)cc2)C1 [Example I-8, (S)-(4-((1-Isopropyl-1H-[1,2,3]triazolo[4,5-H]quinazolin-8-yl)amino)phenyl)(3-(isopropylamino)pyrrolidin-1-yl)methanone] | 0.1 | 0.8 | 3 | 19 | 7 | 2 | 4 | 16
9 | CC(C)n1nnc2ccc3cnc(Nc4ccc(C(=O)N5CCCNCC5)cc4)nc3c21 [Example I-33, (1,4-Diazepan-1-yl)(4-((1-isopropyl-1H-[1,2,3]triazolo[4,5-H]quinazolin-8-yl)amino)phenyl)metha none] | 0.2 | 1 | 45 | 26 | 5 | 2 | 3 | 19
10 | C[C@@H](n1nnc2ccc3cnc(Nc4ccc(C(=O)N5CC[C@H](N)C5)cc4)nc3c21)C(C)(C)O [Example I-54, ((S)-3-Aminopyrrolidin-1-yl)(4-((1-((R)-3-hydroxy-3-methylbutan-2-yl)-1H-[1,2,3]triazolo[4,5-h]quinazolin-8-yl)amino)phenyl)methanone] | 1 | 2 | 8 | 16 | 192 | 7 | 49 | 268
11 | CC(C)n1nnc2ccc3cnc(Nc4ccc(C(=O)N5CC6CCC(C5)N6)cc4)nc3c21 [Example I-25, (3,8-Diazabicyclo[3.2.1]octan-3-yl)(4-((1-isopropyl-1H-[1,2,3]triazolo[4,5-H]quinazolin-8-yl)amino)phenyl)metha none] | 0.2 | 1 | 16 | 29 | 33 | 4 | 13 | 85
12 | C[C@H](CO)n1nnc2ccc3cnc(Nc4ccc(C(=O)N5CCOCC5)cc4)nc3c21 [Example I-51, (R)-(4-((1-(1-Hydroxypropan-2-yl)-1H-[1,2,3]triazolo[4,5-H]quinazolin-8-yl)amino)phenyl)(morpholino)methanone] | 2 | 7 | 122 | 149 | 301 | 51 | 100 | 441
